Values of other authors as cited in patent US12037623B2, “Enzymatic synthesis of 4′-ethynyl nucleoside analogs” (priority 2018, dated 2024).

Assays:
[1] = pbmc
SIV = settings: PBMC from rhesus macaque, 24 hr after drug administration
HIV infection = settings: humanized mouse models and SIV infected rhesus macaque model
[2] = oral; mouse and rhesus monkey

C#C[C@]1(COP(=O)(O)OP(=O)(O)OP(=O)(O)O)O[C@@H](n2cnc3c(N)nc(F)nc32)C[C@@H]1O [EFdA-TP, EFdA Triphosphate]
intracellular half-life [1]: exceeds 72 hrs

C#C[C@]1(CO)O[C@@H](n2cnc3c(N)nc(F)nc32)C[C@@H]1O [EFdA, 4′-ethynyl-2-fluoro-2′-deoxyadenosine]
susceptibility of isolated PBMC to SIV infection (SIV): refractory to SIV infection | antiviral activity against clinical isolates (HIV; clinical isolates across all subtypes that have been evaluated): comparable antiviral activity | antiretroviral activity (HIV; in-vitro HIV replication assays): potent antiretroviral | efficacy in animal models of HIV infection (HIV infection): efficacy | absorption [2]: rapid absorption | plasma concentrations [2]: high plasma concentrations
